# According to patent US20080140036A1, “Antimicrobial Composition” (priority 2004, published 2008):
# Assays:
# Strain T4 MSSA = assay: MIC of triclosan (direct contact); format: cell-based, S. aureus
# S. aureus NCBC 11882 = assay: ZOI of triclosan vapours (vapour phase); format: cell-based
# [1] = system: S. epidermidis NCTC 11047; assay: ZOI of triclosan vapours (vapour phase); format: cell-based
# S. epidermidis NCTC 7944 = assay: ZOI of triclosan vapours (vapour phase); format: cell-based
# MSSA (4) = assay: ZOI of triclosan vapours (vapour phase); format: cell-based, S. aureus
# MSSA (46) = assay: ZOI of triclosan vapours (vapour phase); format: cell-based, S. aureus
# [2] = system: all staphylococcal strains; assay: Vapours of triclosan, all strains; format: cell-based, Staphylococcus; details: vapour phase
# [3] = system: EMRSA m97 271 032 phage group 10; assay: MIC of triclosan (direct contact)
# MRSA 15 = assay: ZOI of triclosan vapours (vapour phase)
# MRSA 20 = assay: ZOI of triclosan vapours (vapour phase)
# MRSA 26 = assay: ZOI of triclosan vapours (vapour phase)
# [4] = system: EMRSA m972 71041 phage group 5; assay: ZOI of triclosan vapours (vapour phase)
# [5] = system: EMRSA m97 271 047 phage group 8; assay: ZOI of triclosan vapours (vapour phase)
compound,measurement,setting,value
Oc1cc(Cl)ccc1Oc1ccc(Cl)cc1Cl [triclosan],MIC,Strain T4 MSSA,0.25 Mg ml^−1−
same,ZOI Average,S. aureus NCBC 11882; average,48 mm
same,ZOI 1,S. aureus NCBC 11882; replicate 1,47 mm
same,ZOI 2,S. aureus NCBC 11882; replicate 2,49 mm
same,ZOI Average,[1]; average,50.5 mm
same,ZOI 1,[1]; replicate 1,50 mm
same,ZOI 2,[1]; replicate 2,51 mm
same,ZOI Average,S. epidermidis NCTC 7944; average,50.5 mm
same,ZOI 1,S. epidermidis NCTC 7944; replicate 1,50 mm
same,ZOI 2,S. epidermidis NCTC 7944; replicate 2,51 mm
same,ZOI Average,MSSA (4); average,51 mm
same,ZOI 1,MSSA (4); replicate 1,50 mm
same,ZOI 2,MSSA (4); replicate 2,52 mm
same,ZOI Average,MSSA (46); average,45 mm
same,ZOI 1,MSSA (46); replicate 1,45 mm
same,ZOI 2,MSSA (46); replicate 2,45 mm
same,effect of vapours on growth,[2],effective at inhibiting growth of all staphylococcal strains
same,MIC,[3],0.5 Mg ml^−1−
same,ZOI Average,MRSA 15; average,50 mm
same,ZOI 1,MRSA 15; replicate 1,50 mm
same,ZOI 2,MRSA 15; replicate 2,50 mm
same,ZOI Average,MRSA 20; average,55 mm
same,ZOI 1,MRSA 20; replicate 1,55 mm
same,ZOI 2,MRSA 20; replicate 2,55 mm
same,ZOI Average,MRSA 26; average,40 mm
same,ZOI 1,MRSA 26; replicate 1,40 mm
same,ZOI 2,MRSA 26; replicate 2,40 mm
same,ZOI Average,[4]; average,55 mm
same,ZOI 1,[4]; replicate 1,55 mm
same,ZOI 2,[4]; replicate 2,55 mm
same,ZOI Average,[5]; average,52 mm
same,ZOI 1,[5]; replicate 1,52 mm
same,ZOI 2,[5]; replicate 2,52 mm
